This is an account of results in paper PMC7948405, “Small-molecule control of neurotransmitter sulfonation” (The Journal of Biological Chemistry, 2020).

The assay deals with T1, SULT1A3 in HME(+) cells (Homo sapiens, UniProt P0DMM9).
T1 construct: HME cells were transfected with plasmid containing the coding region of either SULT1A3 or a negative control; expressed in transfected cells
Briefly: Ex vivo inhibition of dopamine sulfate (DPS) synthesis in SULT1A3-transfected HME(+) cells. The assay is classed as cell-based. As to conditions: 100 μM DP, 24 h, parentheses 1 SD. On the procedure:
A stable transfectant cell line was constructed to test the ability of CMP12 and CMP13 to suppress catecholamine sulfonation in cultured human cells. […] HME cells were transfected with plasmid containing the coding region of either SULT1A3 or a negative control ([14]) (see Experiment and Transfection protocol). Transfectant isolates were grown to near confluence and harvested, and cell extracts were prepared (see Experiment). SULT1A3 levels in the extracts were assessed by determining SULT activity per μg extract (see Experiment). Activity in extracts of the SULT1A3-positive transfectants ranged from 1 to 85 times the levels present in negative-control extracts. […] Consequently, a transfectant, 1A3(+) with extract activity 42 times that of the negative-control isolate, 1A3(-), was selected for further experiments.
To establish conditions for ex vivo inhibition studies, the DP concentration and time dependence of dopamine sulfate (DPS) synthesis by 1A3(+) cells were assessed. DP and its metabolites (DPS, 3-methoxytyramine [3-MT], 3,4-dihydroxyphenylacetic acid [DOPAC], and homovanillic acid [HVA]) are baseline separable using HPLC and can be quantitated optically at […] (see Experiment and Fig. S1). Only DP and DPS were detected in the cell media, and together, they constituted >95% of the DP initially added to the media. The DPS concentration in the 1A3(+) media at 24 h after DP addition is plotted as a function of DP concentration in Fig. 6B. As is evident, the dose-response curve is linear at concentrations as high as 200 μM DP.
Figure 6 HME(+)-cell DPS synthesis and inhibition. A, Time dependence of DPS formation. DP was added at 100 μM to the growth medium of 60 to 70% confluent HME(+)-cells, and the DPS concentration in the medium was determined at the indicated time intervals. B, DP-concentration dependence of DPS synthesis. The Y-axis indicates the concentration of DPS in the growth media 24 h after DP addition. The X-axis indicates the DP concentration added at t = 0 to the growth medium of 60 to 70% confluent HME(+)-cells. […] The levels of DP (red dots) and DPS (blue dots) were determined 24 h after DP addition. […] A–D, dopamine metabolites were separated and quantitated using HPLC (see Experiment); each data point represents the average of three independent determinations, and the sum of DP and DPS concentrations was ≥95% of the total added DP. […]
Transfectants are grown to 60 to 70% confluency at 37 °C in 12-well plates in the MEM containing neomycin (400 μg ml^−1). […] DP metabolite peaks are baseline separated and detected optically at 280 nm (see Fig. S1). Standard curves were used to quantitate each metabolite (Ɛ280 = 3.2 and 2.8 mM^-1 cm^-1 for DP and DPS, respectively). DPS was detected only in the media of cells that express SULT1A3. […]

In general, IC50 refers to the midpoint of a concentration-inhibition curve.

T1 sequence (P0DMM9 whole entry): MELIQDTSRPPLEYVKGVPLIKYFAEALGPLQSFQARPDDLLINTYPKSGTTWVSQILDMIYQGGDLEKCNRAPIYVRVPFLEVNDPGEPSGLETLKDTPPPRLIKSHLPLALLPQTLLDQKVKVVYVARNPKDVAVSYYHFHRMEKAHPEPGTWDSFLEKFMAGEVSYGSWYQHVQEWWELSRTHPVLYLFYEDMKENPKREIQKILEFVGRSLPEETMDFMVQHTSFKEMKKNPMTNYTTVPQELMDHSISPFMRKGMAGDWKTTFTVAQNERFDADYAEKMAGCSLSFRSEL

On to `CC(C)Cc1ccc2cc(CCC(N)=O)ccc2n1` [CMP12], for which the “% Inhibition at saturation” value is reported as 84 (3) % and the IC50 came out at 0.26 µM.
Taken in the same sequence, the figures for `CC(C)Cc1ccc2cc(/C=C/C(N)=O)cnc2n1` [CMP13] were 95 (2) % and 0.012 µM.
